Key:
Assay type in all cases: in vivo
[1] = tested on: Kochia (Kochia scoparia); assay: Test A preemergence; conditions: for Kochia plant response rating (0 to 100 scale, 0 is no effect, 100 is complete control): visual injury approx. 10 d
Excerpt: (§1) Seeds of plant species selected from barnyardgrass (Echinochloa crus-galli), Kochia (Kochia scoparia), ragweed (common ragweed, Ambrosia elatior), ryegrass, Italian (Italian ryegrass, Lolium multiflorum), crabgrass, large (Digitaria sanguinalis), giant foxtail (Setaria faberii), green foxtail (Setaria viridis), morningglory (Ipomoea spp.), pigweed (Amaranthus retroflexus), velvetleaf (Abutilon theophrasti), wheat (Triticum aestivum), and corn (Zea mays) were planted into a blend of loam soil and sand and treated preemergence with a directed soil spray using test chemicals formulated in anon-phytotoxic solvent mixture which included a surfactant.
(§2) At the same time, plants selected from these crop and weed species and also blackgrass (Alopecurus myosuroides), and Galium (catchweed bedstraw, Galium aparine) were planted in pots containing the same blend of loam soil and sand and treated with postemergence applications of test chemicals formulated in the same manner. Plants ranged in height from 2 to 10 cm and were in the one- to two-leaf stage for the postemergence treatment. Treated plants and untreated controls were maintained in a greenhouse for approximately 10 d, after which time all treated plants were compared to untreated controls and visually evaluated for injury. Plant response ratings, summarized in Table A, are based on a 0 to 100 scale where 0 is no effect and 100 is complete control. A dash (-) response means no test result.

[2] = tested on: barnyardgrass (Echinochloa crus-galli); assay: Test A preemergence; conditions: for Barnyardgrass plant response rating (0 to 100 scale, 0 is no effect, 100 is complete control): visual injury approx. 10 d
Excerpt: as §1, §2

[3] = tested on: giant foxtail (Setaria faberii); assay: Test A preemergence; conditions: for Foxtail, Giant plant response rating (0 to 100 scale, 0 is no effect, 100 is complete control): visual injury approx. 10 d
Excerpt: as §1, §2

[4] = tested on: pigweed (Amaranthus retroflexus); assay: Test A preemergence; conditions: for Pigweed plant response rating (0 to 100 scale, 0 is no effect, 100 is complete control): visual injury approx. 10 d
Excerpt: as §1, §2

[5] = tested on: ragweed (common ragweed, Ambrosia elatior); assay: Test A preemergence; conditions: for Ragweed plant response rating (0 to 100 scale, 0 is no effect, 100 is complete control): visual injury approx. 10 d
Excerpt: as §1, §2

[6] = tested on: ryegrass, Italian (Italian ryegrass, Lolium multiflorum); assay: Test A preemergence; conditions: for Ryegrass, Italian plant response rating (0 to 100 scale, 0 is no effect, 100 is complete control): visual injury approx. 10 d
Excerpt: as §1, §2

[7] = tested on: Galium (catchweed bedstraw, Galium aparine); assay: Test A postemergence; conditions: postemergence; for Galium plant response rating: visual injury rating on 0 to 100 scale (0 no effect, 100 complete control)
Method in brief: (§3)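 Each rating is a visual injury score from 0 to 100 given about 10 d after treatment, judged against untreated controls kept alongside in the greenhouse. In loam soil–sand blend, seeds got a preemergence directed soil spray, while postemergence plants were 2 to 10 cm tall at spraying.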

[8] = tested on: Kochia (Kochia scoparia); assay: Test A postemergence; conditions: postemergence; for Kochia plant response rating: visual injury rating on 0 to 100 scale (0 no effect, 100 complete control)
Method in brief: as §3

[9] = tested on: barnyardgrass (Echinochloa crus-galli); assay: Test A postemergence; conditions: postemergence; for Barnyardgrass plant response rating: visual injury rating on 0 to 100 scale (0 no effect, 100 complete control)
Method in brief: as §3

[10] = tested on: blackgrass (Alopecurus myosuroides); assay: Test A postemergence; conditions: postemergence; for Blackgrass plant response rating: visual injury rating on 0 to 100 scale (0 no effect, 100 complete control)
Method in brief: as §3

[11] = tested on: corn (Zea mays); assay: Test A postemergence; conditions: postemergence; for Corn plant response rating: visual injury rating on 0 to 100 scale (0 no effect, 100 complete control)
Method in brief: as §3

[12] = tested on: giant foxtail (Setaria faberii); assay: Test A postemergence; conditions: postemergence; for Foxtail, Giant plant response rating: visual injury rating on 0 to 100 scale (0 no effect, 100 complete control)
Method in brief: as §3

[13] = tested on: pigweed (Amaranthus retroflexus); assay: Test A postemergence; conditions: postemergence; for Pigweed plant response rating: visual injury rating on 0 to 100 scale (0 no effect, 100 complete control)
Method in brief: as §3

[14] = tested on: ragweed (common ragweed, Ambrosia elatior); assay: Test A postemergence; conditions: postemergence; for Ragweed plant response rating: visual injury rating on 0 to 100 scale (0 no effect, 100 complete control)
Method in brief: as §3

[15] = tested on: ryegrass, Italian (Italian ryegrass, Lolium multiflorum); assay: Test A postemergence; conditions: postemergence; for Ryegrass, Italian plant response rating: visual injury rating on 0 to 100 scale (0 no effect, 100 complete control)
Method in brief: as §3

[16] = tested on: wheat (Triticum aestivum); assay: Test A postemergence; conditions: postemergence; for Wheat plant response rating: visual injury rating on 0 to 100 scale (0 no effect, 100 complete control)
Method in brief: as §3

[17] = tested on: barnyardgrass (Echinochloa crus-galli); assay: Test B flooded paddy test; conditions: Flood, 0 to 100 scale where 0 is no effect and 100 is complete control, 13 to 15 d
Description: (§4) Plant species in the flooded paddy test selected from rice (Oryra sativa), sedge, umbrella (small-flower umbrella sedge, Cyperus difformis), ducksalad (Heteranthera limosa), and barnyardgrass (Echinochloa crus-galli) were grown to the 2-leaf stage for testing. At time of treatment, test pots were flooded to 3 cm above the soil surface, treated by application of test compounds directly to the paddy water, and then maintained at that water depth for the duration of the test. Treated plants and controls were maintained in a greenhouse for 13 to 15 d, after which time all species were compared to controls and visually evaluated. Plant response ratings, summarized in Table B, are based on a scale of 0 to 100 where 0 is no effect and 100 is complete control. A dash (-) response means no test result.

[18] = tested on: ducksalad (Heteranthera limosa); assay: Test B flooded paddy test; conditions: Flood, 0 to 100 scale where 0 is no effect and 100 is complete control, 13 to 15 d
Description: as §4

[19] = tested on: rice (Oryra sativa); assay: Test B flooded paddy test; conditions: Flood, 0 to 100 scale where 0 is no effect and 100 is complete control, 13 to 15 d
Description: as §4

[20] = tested on: sedge, umbrella (small-flower umbrella sedge, Cyperus difformis); assay: Test B flooded paddy test; conditions: Flood, 0 to 100 scale where 0 is no effect and 100 is complete control, 13 to 15 d
Description: as §4

[21] = 125 g ai/ha, preemergence, 0 to 100 scale (0 no effect, 100 complete control)
[22] = 500 g ai/ha, 0 to 100 scale, 0 no effect, 100 complete control
[23] = 125 g ai/ha, Preemergence, visual injury after approximately 10 d, 0 to 100 scale where 0 is no effect and 100 is complete control
[24] = 500 g ai/ha, preemergence, 0 to 100 scale, 0 = no effect, 100 = complete control
[25] = 125 g ai/ha, visual rating after approx. 10 d, 0 to 100 scale (0 no effect, 100 complete control)
[26] = 500 g ai/ha, visual injury, 0 to 100 scale (0 no effect, 100 complete control), approx. 10 d

Cc1c(F)ccc(NC(=O)C2C(=O)NCC2c2cccc(OC(F)(F)C(F)F)c2)c1F (stereo not drawn) [Compound 460]
60: Ryegrass, Italian plant response rating (0 to 100 scale, 0 is no effect, 100 is complete control) ([6]; Preemergence, 500 g ai/ha) | Plant response rating, Galium [7, 22] | Barnyardgrass plant response rating ([9]; 125 g ai/ha, approx. 10 d)
40: Kochia plant response rating (0 to 100 scale, 0 is no effect, 100 is complete control) ([1]; Preemergence, 500 g ai/ha) | Plant response rating, Ryegrass, Italian [6, 21] | Plant response rating, Blackgrass [10, 22] | Plant response rating, Corn [11, 22] | Plant response rating, Pigweed [13, 22] | Plant response rating, Barnyardgrass ([17]; 250 g ai/ha)
90: Plant response rating, Foxtail, Giant [3, 21] | Foxtail, Giant plant response rating (0 to 100 scale, 0 is no effect, 100 is complete control) ([3]; Preemergence, 500 g ai/ha) | Foxtail, Giant plant response rating ([12]; 125 g ai/ha, approx. 10 d)
100: Plant response rating, Ducksalad ([18]; 250 g ai/ha)
70: Plant response rating, Barnyardgrass [9, 22]
80: Plant response rating, Barnyardgrass [2, 21] | Barnyardgrass plant response rating (0 to 100 scale, 0 is no effect, 100 is complete control) ([2]; Preemergence, 500 g ai/ha) | Plant response rating, Foxtail, Giant [12, 22]
50: Galium plant response rating ([7]; 125 g ai/ha, approx. 10 d)
30: Plant response rating, Pigweed [4, 21] | Pigweed plant response rating (0 to 100 scale, 0 is no effect, 100 is complete control) ([4]; Preemergence, 500 g ai/ha) | Plant response rating, Kochia [8, 22] | Ryegrass, Italian plant response rating ([15]; 125 g ai/ha, approx. 10 d) | Plant response rating, Ryegrass, Italian [15, 22]
0: Plant response rating, Kochia [1, 21] | Plant response rating, Ragweed [5, 21] | Kochia plant response rating ([8]; 125 g ai/ha, approx. 10 d) | Ragweed plant response rating ([14]; 125 g ai/ha, approx. 10 d) | Plant response rating, Ragweed [14, 22] | Wheat plant response rating ([16]; 125 g ai/ha, approx. 10 d) | Plant response rating, Rice ([19]; 250 g ai/ha) | Plant response rating, Sedge, Umbrella ([20]; 250 g ai/ha)
20: Ragweed plant response rating (0 to 100 scale, 0 is no effect, 100 is complete control) ([5]; Preemergence, 500 g ai/ha) | Blackgrass plant response rating ([10]; 125 g ai/ha, approx. 10 d) | Corn plant response rating ([11]; 125 g ai/ha, approx. 10 d) | Pigweed plant response rating ([13]; 125 g ai/ha, approx. 10 d) | Plant response rating, Wheat [16, 22]

CC(C)Oc1cccc(C2CN(C)C(=O)C2C(=O)Nc2ccccc2C(F)(F)F)c1 (stereo not drawn) [Compound 652]
50: Plant response rating, Galium [7, 26] | Plant response rating, Ryegrass, Italian [15, 25]
80: Plant response rating, Foxtail, Giant [12, 25]
0: Plant response rating, Kochia [1, 23] | Plant response rating, Pigweed [4, 23] | Plant response rating, Ragweed [5, 23] | Plant response rating, Ragweed [5, 24] | Plant response rating, Kochia [8, 25] | Plant response rating, Kochia [8, 26] | Plant response rating, Pigweed [13, 25] | Plant response rating, Ragweed [14, 25] | Plant response rating, Ragweed [14, 26] | Plant response rating, Wheat [16, 25] | Plant response rating, Rice ([19]; 250 g ai/ha) | Plant response rating, Sedge, Umbrella ([20]; 250 g ai/ha)
20: Plant response rating, Pigweed [13, 26]
60: Plant response rating, Ryegrass, Italian [6, 23] | Plant response rating, Ryegrass, Italian [6, 24] | Plant response rating, Blackgrass [10, 25] | Plant response rating, Corn [11, 26]
70: Plant response rating, Blackgrass [10, 26] | Plant response rating, Ryegrass, Italian [15, 26]
90: Plant response rating, Barnyardgrass [2, 23] | Plant response rating, Barnyardgrass [2, 24] | Plant response rating, Barnyardgrass [9, 25] | Plant response rating, Barnyardgrass [9, 26] | Plant response rating, Foxtail, Giant [12, 26]
30: Plant response rating, Kochia [1, 24] | Plant response rating, Pigweed [4, 24] | Plant response rating, Galium [7, 25] | Plant response rating, Corn [11, 25]
65: Plant response rating, Ducksalad ([18]; 250 g ai/ha)
40: Plant response rating, Wheat [16, 26] | Plant response rating, Barnyardgrass ([17]; 250 g ai/ha)
100: Plant response rating, Foxtail, Giant [3, 23] | Plant response rating, Foxtail, Giant [3, 24]

O=C1NCC(c2ccc(F)c(F)c2)C1C(=O)Nc1ccc(F)cc1Cl (stereo not drawn) [Compound 411]
50: Plant response rating, Galium [7, 22]
98: Plant response rating, Ducksalad ([18]; 500 g ai/ha)
90: Foxtail, Giant plant response rating (0 to 100 scale, 0 is no effect, 100 is complete control) ([3]; Preemergence, 500 g ai/ha)
30: Galium plant response rating ([7]; 125 g ai/ha, approx. 10 d)
0: Plant response rating, Kochia [1, 21] | Kochia plant response rating (0 to 100 scale, 0 is no effect, 100 is complete control) ([1]; Preemergence, 500 g ai/ha) | Plant response rating, Pigweed [4, 21] | Plant response rating, Ragweed [5, 21] | Ragweed plant response rating (0 to 100 scale, 0 is no effect, 100 is complete control) ([5]; Preemergence, 500 g ai/ha) | Plant response rating, Ryegrass, Italian [6, 21] | Ryegrass, Italian plant response rating (0 to 100 scale, 0 is no effect, 100 is complete control) ([6]; Preemergence, 500 g ai/ha) | Kochia plant response rating ([8]; 125 g ai/ha, approx. 10 d) | Plant response rating, Kochia [8, 22] | Blackgrass plant response rating ([10]; 125 g ai/ha, approx. 10 d) | Plant response rating, Blackgrass [10, 22] | Corn plant response rating ([11]; 125 g ai/ha, approx. 10 d) | Plant response rating, Corn [11, 22] | Pigweed plant response rating ([13]; 125 g ai/ha, approx. 10 d) | Plant response rating, Pigweed [13, 22] | Ragweed plant response rating ([14]; 125 g ai/ha, approx. 10 d) | Plant response rating, Ragweed [14, 22] | Ryegrass, Italian plant response rating ([15]; 125 g ai/ha, approx. 10 d) | Plant response rating, Ryegrass, Italian [15, 22] | Wheat plant response rating ([16]; 125 g ai/ha, approx. 10 d) | Plant response rating, Wheat [16, 22] | Plant response rating, Rice ([19]; 500 g ai/ha) | Plant response rating, Sedge, Umbrella ([20]; 500 g ai/ha)
20: Plant response rating, Barnyardgrass ([17]; 500 g ai/ha)
70: Plant response rating, Barnyardgrass [2, 21] | Plant response rating, Barnyardgrass [9, 22]
80: Barnyardgrass plant response rating (0 to 100 scale, 0 is no effect, 100 is complete control) ([2]; Preemergence, 500 g ai/ha) | Plant response rating, Foxtail, Giant [3, 21] | Plant response rating, Foxtail, Giant [12, 22]
40: Barnyardgrass plant response rating ([9]; 125 g ai/ha, approx. 10 d) | Foxtail, Giant plant response rating ([12]; 125 g ai/ha, approx. 10 d)
10: Pigweed plant response rating (0 to 100 scale, 0 is no effect, 100 is complete control) ([4]; Preemergence, 500 g ai/ha)

— patent US12077503B2, “Substituted cyclic amides and their use as herbicides” (FMC CORPORATION, priority 2015, dated 2024)
